Data reported in patent publication US20240423995A1, “C-KIT INHIBITORS AND USES FOR TREATING AND PREVENTING INFLAMMATORY CONDITIONS” (GEORGETOWN UNIVERSITY, priority 2023, published 2024).

What was measured:
[1] = biological target: T1, c-kit (Homo sapiens, UniProt P10721); test: KINASESEEKER competition binding assay, c-kit; details: minimum 8-point curve, duplicate
T1 construct: purchased Luceome Biotechnologies, LLC
Experimental: Kinase assays were performed using KINASESEEKER™ (Luceome Biotechnologies, LLC; Tucson, AZ). KINASESEEKER™ is a homogeneous competition binding assay in which the displacement of an active site-dependent probe by an inhibitor is measured by a change in luminescence signal. Luminescence readout translates into a highly sensitive and robust assay with low background and minimal interference from test compounds. See J. Am. Chem. Soc., 2010, 132, 11727-11735.
Stock solutions of compounds were serially diluted in DMSO to make assay stocks. Prior to initiating IC50 determination, the test compounds were evaluated for false positives against split-luciferase. The compounds were screened against kinases at a minimum of 8 different concentrations in duplicate. For kinase assays, a 24 μL aliquot of lysate containing Cfluc-kinase and Fos-Nfluc was incubated for 2 hours with either 1 μL of DMSO (for no-inhibitor control) or compound solution in DMSO in presence of a kinase specific probe. 80 μL of luciferin assay reagent was added to each solution and luminescence was immediately measured on a luminometer.
The % Inhibition and % Activity Remaining was calculated using the following equation: […]
The % Activity Remaining was plotted against compound concentration and the IC50 was determined for each compound using a minimum 8-point curve.

[2] = system: LUVA cells; test: MC maturation in LUVA cells by flow cytometry (CD117, FceR1); type: cell-based, human; details: 100 ng/mL SCF overnight, then 10 nM, 100 nM, 1 μM compound for 48 hours, vs DMSO
Experimental: A human mast cell (MC) line that arose spontaneously from a culture of non-transformed hematopoietic progenitor cells is described in J Allergy Clin Immunol, 2011, 127:815-22, which is incorporated herein by reference. The cells, termed LUVA cells, are an immortalized human MC line that can be maintained without stem cell factor (SCF) and that display high levels of normally signaling c-kit and FceR1.
The LUVA cells (Kerafast, EG1701-FP) were cultured in StemPro-34 serum-free media with 10% nutrient supplement, 1% L-glutamine, and 1% pen/strep and grown under normal atmospheric conditions (5% CO2). The cells were plated and treated with 100 ng/mL of SCF overnight and then treated with DMSO or an ascending dose of either BK40143, BK40196, or BK40197 for 48 hours, before collection and incubation with two flow-conjugated antibodies (PE anti-mouse CD117 (c-kit) and APC/fire 750 anti-mouse FceR1a) and subsequent analysis via flow cytometry. Group differences were compared using unpaired Student's t-tests.

[3] = biological target: T2, SYK (Homo sapiens, UniProt P43405); test: KINOMEscan competition binding screen, SYK; details: for remaining binding at 10 µM: read-out: % Ctrl @ 10 μM
T2 construct: purchased Eurofins DiscoverX Corporation
Experimental: (§1) The KINOMEscan™ screening platform (Eurofins DiscoverX Corporation, San Diego, USA) was performed using an active site-directed competition binding assay to quantitatively measure interactions between BK40143, BK40197, BK40195, and BK40196 and more than 450 human kinases and disease relevant mutant variants. […] Screening “hits” were identified by measuring the amount of kinase captured in test (BK40143, BK40197, BK40195, and BK40196) versus control samples by using a quantitative and ultra-sensitive qPCR method that detects the associated DNA label. BK40143, BK40197, BK40195, and BK40196 were screened at 10 μM concentration, and results for primary screen binding interactions were reported as ‘% Ctrl’ (POC), where lower numbers indicate stronger hits and calculated as follows:
(§2) [formula] • test compound=BK40143 or BK40197 or BK40195 or BK40196 • negative control=DMSO (100% Ctrl) • positive control=control compound (0% Ctrl)
(§3) Based on screening data of profiled compounds, a proportional relationship between primary screening results and corresponding compound/target affinities can be described as binding constants (Kd values) for the indicated ranges of percent of control (PoC) values, with tighter binding (higher affinity) interactions associated with lower PoC values, and weaker binding (lower affinity) associated with higher PoC values. Briefly, kinase-tagged T7 phage strains were grown in parallel in 24-well blocks in an E. coli host derived from the BL21 strain. E. coli were grown to log-phase and infected with T7 phage from a frozen stock (multiplicity of infection=0.4) and incubated with shaking at 32° C. until lysis (90-150 minutes). The lysates were centrifuged (6,000×g) and filtered ([…]) to remove cell debris. The remaining kinases were produced in HEK-293 cells and subsequently tagged with DNA for qPCR detection. Streptavidin-coated magnetic beads were treated with biotinylated small molecule ligands for 30 minutes at room temperature to generate affinity resins for kinase assays. The liganded beads were blocked with excess biotin and washed with blocking buffer (SeaBlock (Pierce), 1% BSA, 0.05% Tween 20, 1 mM DTT) to remove unbound ligand and to reduce non-specific phage binding. Binding reactions were assembled by combining kinases, liganded affinity beads, and test compounds in 1× binding buffer (20% SeaBlock, 0.17×PBS, 0.05% Tween 20, 6 mM DTT). Test compounds were prepared as 100× stocks in 100% DMSO and directly diluted into the assay. All reactions were performed in polypropylene 384-well plates in a final volume of 0.02 ml. The assay plates were incubated at room temperature with shaking for 1 hour and the affinity beads were washed with wash buffer (1×PBS, 0.05% Tween 20). The beads were then re-suspended in elution buffer (1×PBS, 0.05% Tween 20, 0.5 μM non-biotinylated affinity ligand) and incubated at room temperature with shaking for 30 minutes. The kinase concentration in the eluates was measured by qPCR.

[4] = biological target: T3, KIT (D816H) (Homo sapiens, UniProt P10721, D816H); test: KINOMEscan competition binding screen, KIT (D816H); details: for remaining binding at 10 µM: read-out: % Ctrl @ 10 μM
T3 construct: purchased Eurofins DiscoverX Corporation
T3 sequence (P10721 26-976 D816H): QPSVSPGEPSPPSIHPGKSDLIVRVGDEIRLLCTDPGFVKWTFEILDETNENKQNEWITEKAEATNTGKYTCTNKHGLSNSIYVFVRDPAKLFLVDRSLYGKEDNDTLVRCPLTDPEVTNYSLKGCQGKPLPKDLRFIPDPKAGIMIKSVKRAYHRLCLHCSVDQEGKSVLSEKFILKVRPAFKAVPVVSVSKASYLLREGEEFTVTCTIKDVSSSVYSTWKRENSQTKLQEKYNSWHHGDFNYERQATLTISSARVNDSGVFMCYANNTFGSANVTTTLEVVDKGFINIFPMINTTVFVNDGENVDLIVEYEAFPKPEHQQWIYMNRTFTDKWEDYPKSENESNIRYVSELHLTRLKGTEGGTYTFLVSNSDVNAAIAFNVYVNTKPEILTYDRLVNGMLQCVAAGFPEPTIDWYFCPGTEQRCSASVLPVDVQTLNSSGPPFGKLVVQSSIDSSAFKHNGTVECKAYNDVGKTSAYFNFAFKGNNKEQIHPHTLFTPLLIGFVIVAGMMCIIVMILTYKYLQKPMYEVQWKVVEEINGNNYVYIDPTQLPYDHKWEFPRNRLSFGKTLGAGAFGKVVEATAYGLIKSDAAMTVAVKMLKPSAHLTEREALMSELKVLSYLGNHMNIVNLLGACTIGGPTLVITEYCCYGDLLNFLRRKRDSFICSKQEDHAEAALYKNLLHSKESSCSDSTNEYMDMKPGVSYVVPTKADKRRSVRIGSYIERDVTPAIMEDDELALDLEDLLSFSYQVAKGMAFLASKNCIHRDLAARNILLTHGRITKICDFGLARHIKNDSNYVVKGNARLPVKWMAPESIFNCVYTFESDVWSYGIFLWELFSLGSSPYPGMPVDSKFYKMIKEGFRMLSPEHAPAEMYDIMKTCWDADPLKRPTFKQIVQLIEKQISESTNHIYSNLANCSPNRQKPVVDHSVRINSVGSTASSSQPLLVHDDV
Experimental: as §1, §2, §3

T1 sequence (P10721 26-976): as the sequence (P10721 26-976 D816H) above, with H791D counted along it

Compound | IC50 [1] [nM] | number of immature MCs (CD117 only) compared to mature MCs (CD117 and FceR1) [2] | inhibition at 10 µM [3] [%] | remaining binding at 10 µM [3] [%] | inhibition at 10 µM [4] [%] | remaining binding at 10 µM [4] [%]
Cc1cccc(-c2cc3nccc(Nc4cccc(O)c4)c3s2)c1 [BK40196] | 276 ± 35 | significantly increased | 97.7 | 2.3 | 94.1 | 3.9
Cc1cccc(-c2cc3nccc(Nc4ccccc4)c3s2)c1 [BK40143] | 750 ± 110 | significantly increased | 94.5 | 5.5 | 54 | 46
COc1cccc(Nc2ccnc3cc(-c4cccc(C)c4)sc23)c1 [BK40195] | 288 ± 23 | – | 88 | 12 | 93.9 | 6.1
Cc1cccc(-c2cc3nccc(N4CCOCC4)c3s2)c1 [BK40197] | – | significantly increased | 56 | 44 | 0 | 100
